Laboratory results: patent US20220160652A1, “USE OF VITAMIN K IN COMBINATION WITH ANTICOAGULANTS” (KAYDENCE PHARMA AS, priority 2019, published 2022)
“Also recorded” adds a separate entry of the source.

Columns and labels:
VSMCs [1] = assay: Oxidative stress in VSMCs (DCFDA fluorescence); assay type: cell-based; conditions: 10 μM, fluorescence measured for 6 hours
Description: (§1) It is known that the level of reactive oxygen species in cells can be measured by measuring the conversion of 2′,7′—dichlorofluorescein diacetate (DCFDA) to the fluorescent dye 2′,7′-dichlorofluorescein (DCF). The fluorescence generated by cells subjected to DCFDA is directly proportional to the amount of oxidized DCFDA to DCF.
To perform the study, VSMCs (10,000 cells/well) were plated in a 96-well plate and left to adhere overnight. Next, cells were incubated for 1 hour with 20 μM DCFDA. The medium was then changed to medium supplemented with 10 μM vitamin K2 (MK-7). To visualize intracellular oxidative stress, fluorescence was measured for 6 hours and fluorescence intensity was normalized for cell count.

VSMCs [2] = assay: Warfarin-induced oxidative stress in VSMCs, effect of vitamin K2 (DCFDA); assay type: cell-based; conditions: 5 hours incubation
Description: as §1
This study was performed to determine if vitamin K2 (MK-7) reduces warfarin-induced oxidative stress. To perform the study, VSMCs (10,000 cells/well) were plated in a 96-well plate and left to adhere overnight. Next, cells were incubated for 24 hours with 100 μM warfarin. The next day, […] DCFDA was added to the cells for 1 hour. The cells were then incubated for 5 hours with normal medium (baseline), vitamin K2 (MK-7), or warfarin. Fluorescence was measured and fluorescence intensity was normalized for cell count.

[3] = system: human vascular smooth muscle cells (hVSMCs); assay: Vitamin K2 (MK-7) and ATP pathway: ATP luminescence with warfarin; assay type: cell-based; conditions: warfarin 50 μM with vitamin K2 (MK-7) 10 μM, 24 hours
Description: This study was performed in order to determine the effect of vitamin K2 (MK-7) on warfarin-induced oxidative stress in muscles. To perform this study, human vascular smooth muscle cells (hVSMCs; 5,000 cells/well) were plated in 96-well dark plates and left to adhere overnight. Next, cells were incubated for 24 hours with either vehicle only (as blank control), warfarin (10 or 50 μM), vitamin K2 (MK-7) (10 μM), or a combination of warfarin (50 μM) and vitamin K2 (MK-7) (10 μM). Hoechst was added to correct for cell number (1 μg/mL). Next, ATP was measured using mammalian lysis buffer for 5 minutes after which 50 μL ATP substrate solution was added to the wells and incubated for 10 minutes in a dark environment. Finally, medium was transferred to a white plate to measure luminescence.

VSMCs [4] = assay: Vitamin K2 (MK-7) effect on ATP over time; assay type: cell-based; conditions: 10 μM, indicated time points
Description: This study was performed to investigate the effect of vitamin K2 (MK-7) on ATP over time. It is known that all cells, including VSMCs, proliferate. The term cell growth is used in the contexts of biological cell development and cell division (reproduction). When used in the context of cell division, it refers to growth of cell populations, where a cell, known as the “mother cell,” grows and divides to produce two “daughter cells” (M phase). When used in the context of cell development, the term refers to increase in cytoplasmic and organelle volume (G1 phase), as well as increase in genetic material (G2 phase) following the replication during S phase. When a cell is quiescent, this phase is called G0. Cell populations go through a particular type of exponential growth called doubling. Each generation of cells should be twice as numerous as the previous generation. However, the number of generations only gives a maximum figure as not all cells survive in each generation.
To perform this study, first, VSCMs (5000 cells/well) were plated in 96-well plates and left to adhere overnight. […] Next, ATP was measured using mammalian lysis buffer for 5 minutes, after which 50 μL ATP substrate solution was added to the wells and incubated for 10 minutes in a dark environment. Finally, medium was transferred to a white plate to measure luminescence.

Sprague-Dawley rats = assay: T-TAS thrombus formation in whole blood of treated Sprague-Dawley rats; assay type: in vivo, rat; conditions: added to dabigatran and to rivaroxaban
Description: This experiment was conducted in order to evaluate the effects of vitamin K2 (MK-7) on the anticoagulant activity of the new oral anticoagulants (NOAC) rivaroxaban and dabigatran using the T-TAS Total Thrombus-formation Analysis System. The T-TAS Total Thrombus-formation Analysis System is a microchip-based flow chamber system capable of evaluating whole-blood thrombogenicity. It is a useful tool in monitoring the efficacy of anticoagulants on thrombus formation and predicting the risk of bleeding complications. To perform the study, 45 wild-type male Sprague-Dawley and 45 transgenic male Ren-2 rats [TGR(mREN-2)27] at the age of 10-11 weeks at the beginning of the treatment period were purchased from animal facility IKEM-CEM Institute of Clinical and Experimental Medicine (Prague, Czech Republic). All animals in the experiment were housed in individually ventilated cages (2-3 rats per cage) and kept in the animal rooms of JCET at a relative humidity of 55±10%, a temperature of 22±2 ° C., and a light cycle of 7 AM to 7 PM. The rats had free access to food and water. After delivery, animals were randomly divided into 10 experimental groups (5 or 10 rats per group), as indicated below in Table 1. Four days before the start of the treatment, the first part of animals' body weight and food intake was measured in selected representative three cages (rats n=9) to calculate the appropriate amount of tested compounds required for addition to the diet to obtain the dosing indicated in Table 1. It was estimated that food intake was approximately 30 g of chow per rat per day. […] The body mass of the rats was measured at the beginning and at the end of treatment. At the beginning and at the end of treatment, the food intake per day was measured in representative group of animals to monitor the daily dosing of tested compounds (per kg of body mass). The thrombus formation in vitro was measured in whole blood using a microchip-based flow chamber system according to manufacturers' protocol (Total Thrombus-formation Analyser System, T-TAS; Fujimori Kogyo Co., Ltd., Tokyo, Japan). […]

[5] = system: transgenic Ren-2 rats [TGR(mREN-2)27]; assay: T-TAS thrombus formation in whole blood of treated TGR (Ren-2) rats; assay type: in vivo, rat; conditions: vitamin K2 (MK-7) added
Description: This experiment was conducted in order to evaluate the effects of vitamin K2 (MK-7) on the anticoagulant activity of the new oral anticoagulants (NOAC) rivaroxaban and dabigatran using the T-TAS Total Thrombus-formation Analysis System. The T-TAS Total Thrombus-formation Analysis System is a microchip-based flow chamber system capable of evaluating whole-blood thrombogenicity. It is a useful tool in monitoring the efficacy of anticoagulants on thrombus formation and predicting the risk of bleeding complications. […] Four days before the start of the treatment, the first part of animals' body weight and food intake was measured in selected representative three cages (rats n=9) to calculate the appropriate amount of tested compounds required for addition to the diet to obtain the dosing indicated in Table 1. […] The body mass of the rats was measured at the beginning and at the end of treatment. At the beginning and at the end of treatment, the food intake per day was measured in representative group of animals to monitor the daily dosing of tested compounds (per kg of body mass). The thrombus formation in vitro was measured in whole blood using a microchip-based flow chamber system according to manufacturers' protocol (Total Thrombus-formation Analyser System, T-TAS; Fujimori Kogyo Co., Ltd., Tokyo, Japan). […]

CC(C)=CCC/C(C)=C/CC/C(C)=C/CC/C(C)=C/CC/C(C)=C/CC/C(C)=C/CC/C(C)=C/CC1=C(C)C(=O)c2ccccc2C1=O [vitamin K2 (MK-7)]
oxidative stress in VSMCs (DCF fluorescence) (VSMCs [1]): clearly reduced the oxidative stress
warfarin-induced oxidative stress in VSMCs (VSMCs [2]; after 24 hours 100 μM warfarin): counteracted the warfarin-induced oxidative stress; also recorded: counteracts intracellular oxidative stress
normal oxidative stress in VSMCs (VSMCs [2]; normal conditions): reduced not only normal oxidative stress; also recorded: counteracts intracellular oxidative stress
oxidative stress induced by warfarin [3]: counteracted the oxidative stress induced by warfarin
ATP production in VSMCs over time (VSMCs [4]): stimulated ATP production in VSMCs
formation of a clot (AUC) on addition of vitamin K2 (MK-7) (Sprague-Dawley rats): did not prevent the formation of a clot
increase of occlusion Time (OT) on addition of vitamin K2 (MK-7) (Sprague-Dawley rats): 5-7%
modification of the thrombus formation inhibition by dabigatran and rivaroxaban [5]: did not modify this effect significantly
